Results on one compound are retold here after patent publication US11578062B2, “Solid forms of (R)-1(2,2-difluorobenzo[d][1,3]dioxol-5-yl)-N-(1-(2,3-dihydroxypropyl)-6-fluoro-2-(1-hydroxy-2-methylpropan-2-yl)-1H-indol-5-yl)cyclopropanecarboxamide” (Vertex Pharmaceuticals Incorporated, priority 2010, dated 2023).

The assay addresses T1, ΔF508-CFTR (Homo sapiens, UniProt P13569, DEL508-508).
T1 construct: expressed in transfected cells
As to the kind of experiment: Membrane potential optical assay for ΔF508-CFTR correction (FRET voltage-sensor dyes, VIPR). In kind it is cell-based. The settings on record: PercentActivity; NIH3T3 mouse fibroblasts stably expressing ΔF508-CFTR; procedures described above. An excerpt: Assays for Detecting and Measuring ΔF508-CFTR Correction Properties of Compounds
Membrane potential optical methods for assaying ΔF508-CFTR modulation properties of compounds
The optical membrane potential assay utilized voltage-sensitive FRET sensors described by Gonzalez and Tsien (See, Gonzalez, J. E. and R. Y. Tsien (1995) “Voltage sensing by fluorescence resonance energy transfer in single cells” Biophys J 69(4): 1272-80, and Gonzalez, J. E. and R. Y. Tsien (1997) “Improved indicators of cell membrane potential that use fluorescence resonance energy transfer” Chem Biol 4(4): 269-77) in combination with instrumentation for measuring fluorescence changes such as the Voltage/Ion Probe Reader (VIPR) (See, Gonzalez, J. E., K. Oades, et al. (1999) “Cell-based assays and instrumentation for screening ion-channel targets” Drug Discov Today 4(9): 431-439).
These voltage sensitive assays are based on the change in fluorescence resonant energy transfer (FRET) between the membrane-soluble, voltage-sensitive dye, DiSBAC2(3), and a fluorescent phospholipid, CC2-DMPE, which is attached to the outer leaflet of the plasma membrane and acts as a FRET donor. […] The changes in fluorescence emission were monitored using VIPR™ II, which is an integrated liquid handler and fluorescent detector designed to conduct cell-based screens in 96- or 384-well microtiter plates. […]

T1 sequence (P13569 with tags, fused parts or gaps DEL508-508): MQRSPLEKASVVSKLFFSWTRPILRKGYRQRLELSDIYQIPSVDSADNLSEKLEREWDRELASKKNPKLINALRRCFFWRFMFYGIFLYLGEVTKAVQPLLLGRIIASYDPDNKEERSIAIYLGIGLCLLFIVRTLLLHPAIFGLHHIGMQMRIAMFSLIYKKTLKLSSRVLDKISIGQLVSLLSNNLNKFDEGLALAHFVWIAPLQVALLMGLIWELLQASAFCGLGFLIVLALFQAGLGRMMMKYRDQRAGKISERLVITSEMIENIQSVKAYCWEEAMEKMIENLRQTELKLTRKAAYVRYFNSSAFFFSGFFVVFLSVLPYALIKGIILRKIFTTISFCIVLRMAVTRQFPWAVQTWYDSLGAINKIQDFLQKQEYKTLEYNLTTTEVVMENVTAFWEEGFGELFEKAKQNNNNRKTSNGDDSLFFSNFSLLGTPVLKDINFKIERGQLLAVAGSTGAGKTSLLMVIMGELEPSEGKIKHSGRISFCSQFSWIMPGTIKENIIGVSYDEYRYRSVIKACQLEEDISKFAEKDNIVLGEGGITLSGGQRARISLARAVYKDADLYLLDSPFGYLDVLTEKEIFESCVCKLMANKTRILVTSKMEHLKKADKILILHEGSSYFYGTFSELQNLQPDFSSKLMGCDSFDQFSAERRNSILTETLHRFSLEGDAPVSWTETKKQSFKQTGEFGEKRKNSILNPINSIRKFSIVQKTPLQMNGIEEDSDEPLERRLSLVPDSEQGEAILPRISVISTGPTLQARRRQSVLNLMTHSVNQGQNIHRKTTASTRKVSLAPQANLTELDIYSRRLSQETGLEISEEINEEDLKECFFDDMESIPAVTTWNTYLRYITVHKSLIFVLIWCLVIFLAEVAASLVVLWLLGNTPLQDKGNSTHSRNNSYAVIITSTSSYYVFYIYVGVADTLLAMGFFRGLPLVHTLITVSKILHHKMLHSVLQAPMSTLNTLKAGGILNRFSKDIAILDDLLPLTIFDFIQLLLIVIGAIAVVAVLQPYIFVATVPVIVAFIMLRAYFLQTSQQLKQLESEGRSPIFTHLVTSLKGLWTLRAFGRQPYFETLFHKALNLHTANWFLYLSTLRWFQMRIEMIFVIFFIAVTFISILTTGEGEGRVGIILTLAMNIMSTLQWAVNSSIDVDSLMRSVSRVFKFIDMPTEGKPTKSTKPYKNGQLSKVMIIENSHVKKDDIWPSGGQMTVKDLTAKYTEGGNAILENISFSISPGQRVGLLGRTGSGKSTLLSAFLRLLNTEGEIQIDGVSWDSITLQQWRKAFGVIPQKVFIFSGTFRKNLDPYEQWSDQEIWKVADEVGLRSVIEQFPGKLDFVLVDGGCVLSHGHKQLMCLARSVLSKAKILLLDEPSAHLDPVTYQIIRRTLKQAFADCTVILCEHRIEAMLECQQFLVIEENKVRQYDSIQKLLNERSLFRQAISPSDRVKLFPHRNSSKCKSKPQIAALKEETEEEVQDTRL

As for `CC(C)(CO)c1cc2cc(NC(=O)C3(c4ccc5c(c4)OC(F)(F)O5)CC3)c(F)cc2n1C[C@@H](O)CO` [Compound 1, (R)-1-(2,2-difluorobenzo[d][1,3]dioxol-5-yl)-N-(1-(2,3-dihydroxypropyl)-6-fluoro-2-(1-hydroxy-2-methylpropan-2-yl)-1H-indol-5-yl)cyclopropanecarboxamide], the BinnedMaxEfficacy entry is “+++ (PercentActivity Bins: + <= 25.0 < ++ <= 100.0 < +++)”.
